Assays:
[1] = test system: mouse model of HF (myocardial infarction, MI); experiment: open field test and elevated plus maze (EPM) test; format: in vivo; details: MI mice, treated
Source text: FIGS. 2A-2G illustrate a mouse model of heart failure (myocardial infarction) that is associated with cognitive dysfunction. […] One-way analysis of variance (ANOVA) was used to compare the difference between the six groups in FIGS. 2B, 2C, 2E and 2F. Tukey's test was used for multiple comparisons; two-way ANOVA was used in FIG. 2D. […] All statistical tests were two sided with the data derived from biologically independent samples.
Because of the complexity of the clinical manifestation of HF patients, the mouse model of HF (myocardial infarction, MI) was used with reduced ejection fraction to evaluate the mechanisms of CD. The open field test and elevated plus maze (EPM) test were used to evaluate the behavioral phenotypes, and spontaneous exploratory activity in the mice. In the open field test, mice were placed at the center of a chamber and allowed to explore for 6 min. […] In the EPM test, MI mice spent […] time in the open arms of the EPM (FIG. 2B) compared to SHAM (0.22±0.04 versus 0.14±0.02; P<0.05). […] As a control, the effects of a Rycal®, ARM036, was studied.

hippocampal RyR2 [2] = target: T1, hippocampal RyR2 (Mus musculus, UniProt E9Q401); experiment: SDS-PAGE analysis of modified RyR2 and calstabin2 immunoprecipitated from hippocampal RyR2 complex; format: in vivo; details: hippocampi of treated MI mice
T1 construct: Hippocampal RyR2 was immunoprecipitated and immunoblotted to detect PTMs; from tissue; host or cells: mouse hippocampus (SHAM / MI mice, treated in vivo)
Procedure: FIGS. 3A-3G illustrate a mouse model of heart failure that is associated with leaky hippocampal RyR2. FIG. 3A is a cryogenic electron microscopy structure of RyR2 (gray, top and side view) showing the location of the Ser2808 in the RY3&4 phosphorylation domain (magenta) and calstabin2 (cyan). RyR2 PKA phosphorylation shifted the channel toward a primed state (yellow) 50.
(§1) PTMs and functional abnormalities of neuronal RyR2 in HF hippocampal samples from MI mice were then evaluated and compared them to SHAM. Hippocampal RyR2 was immunoprecipitated and immunoblotted to detect PTMs.

hippocampal RyR2 [3] = target: T1, hippocampal RyR2; experiment: single-channel recordings of RyR2 incorporated in planar lipid bilayers; format: in vivo; details: hippocampal RyR2 from treated MI mice; for RyR2 mean closed time / RyR2 mean open time: versus untreated MI
Procedure: FIG. 3E are graphs of RyR2 Po, To and Tc in the same groups as FIG. 3D. FIG. 3F is a graph of Ca^2+ leak measured in microsomes from mouse hippocampi of the same groups as FIG. 3D. […] Individual values are shown with the mean±s.e.m. […] Data are derived from biologically independent samples. All statistical tests were two sided.
as §1

MI mice [4] = experiment: long-term potentiation (fEPSPs) in hippocampal slices; format: in vivo, mouse; details: slices from treated MI mice; MI decreased LTP versus SHAM
Procedure: (§2) FIG. 4A is a schematic representation of a hippocampal brain slice for LTP experiments and the positioning of the stimulating and recording electrodes.
Field excitatory postsynaptic potentials (fEPSPs) were evaluated at the Schaffer collateral using a bipolar electrode placed at the CA3 and recording at the CA1 (FIG. 4A). […] Importantly, MI and treatment with the various compounds after MI had no effect on basal synaptic transmission determined by the input-output curves (I-O; P=0.5; FIG. 4D).

MI mice [5] = experiment: hippocampal FDG metabolism by microPET; format: in vivo, mouse; details: treated MI mice; percentage of the FDG uptake in the SHAM mice (SHAM 100±3, MI 70±3)
Source text: as §2
Thereafter, [^18F]fluorodeoxyglucose (FDG) with positron emission tomography (PET) was used to measure energy consumption in neurons, which reflects neuronal communication signals and the integrative local neuronal activity. Deteriorating brain glucose metabolism measured by FDG-PET has been used as a clinical marker for Alzheimer's disease diagnosis. Thus, hippocampal FDG metabolism was evaluated in the experimental groups (FIGS. 4E and 4F).

SNARE signaling pathway = experiment: immunoblots of SNAP25, VAMP8, SYT2 and CPLX3 in hippocampi; format: in vivo, mouse; details: hippocampi of treated MI mice
Source text: FIGS. 7A-7E illustrate altered synaptic protein expression in heart failure. […] The color map represents fold change of proteins (log 2 scale). […] FIGS. 7B and 7C are immunoblots showing total expression of SNAP25, VAMP8, SYT2 and CPLX3, normalized to GAPDH in the hippocampi of controls (n=4) and individuals with HF (n=9). Individual values are shown with the mean±s.e.m. (t-test *P<0.05, control versus individuals with HF). […] Individual values are shown with the mean #s.e.m. […] Data are derived from biologically independent samples. All statistical tests were two sided.
Based on the proteome data in the setting of defective Ca^2+ regulation, four proteins were selected for further study. These four proteins were from the most enriched synaptic transmission pathways that are regulated by Ca^2+, located near the synaptic membranes, involved in learning and memory process, and involved in neurotransmission as potential downstream signals of leaky RyR2. These selections included synaptosomal-associated protein 25 (SNAP25), vesicle-associated membrane protein 8 (VAMP8), synaptogamin-2 (SYT2) and complexin3 (CPLX3). We analyzed their protein expression levels by immunoblot in individuals with HF, and in SHAM and MI mice with or without each of the aforementioned treatments. […]

TGF-β pathway = experiment: immunoblots of TGF-β, phosphorylated SMAD3 and NOX2 binding to RyR2 in hippocampi; format: in vivo, mouse; details: hippocampi of treated MI mice
Source text: FIG. 12A includes immunoblots showing expressing levels of TGF-β, phosphorylated SMAD3, total SMAD3, and NOX2 binding to RyR2 in the hippocampi of controls (n=4) and HF patients (n=9). FIG. 12B includes bar graphs depicting the ratio of TGF-β expression normalized to GAPDH, phosphorylated SMAD3 to total SMAD3 and NOX2 binding to RyR2 (IP RyR2). The same quantity of proteins was loaded on two separate gels and blotted separately for SMAD3 and pSMAD3. Individual values are shown with mean±SEM (t-test * p<0.05, Controls vs. HF patients). […] FIG. 12D includes bar graphs depicting the ratio of TGF-β expression normalized to GAPDH, phosphorylated SMAD3 to total SMAD3 and NOX2 binding to RyR2 (IP RyR2). The same quantity of proteins was loaded on two separate gels and blotted separately for SMAD3 and pSMAD3. Individual values are shown with mean±SEM. […] All statistical tests were two-sided. Data are derived from biologically independent samples.
TGF-β has been implicated in CNS disorders including Alzheimer's disease.

T1 sequence (E9Q401 whole entry): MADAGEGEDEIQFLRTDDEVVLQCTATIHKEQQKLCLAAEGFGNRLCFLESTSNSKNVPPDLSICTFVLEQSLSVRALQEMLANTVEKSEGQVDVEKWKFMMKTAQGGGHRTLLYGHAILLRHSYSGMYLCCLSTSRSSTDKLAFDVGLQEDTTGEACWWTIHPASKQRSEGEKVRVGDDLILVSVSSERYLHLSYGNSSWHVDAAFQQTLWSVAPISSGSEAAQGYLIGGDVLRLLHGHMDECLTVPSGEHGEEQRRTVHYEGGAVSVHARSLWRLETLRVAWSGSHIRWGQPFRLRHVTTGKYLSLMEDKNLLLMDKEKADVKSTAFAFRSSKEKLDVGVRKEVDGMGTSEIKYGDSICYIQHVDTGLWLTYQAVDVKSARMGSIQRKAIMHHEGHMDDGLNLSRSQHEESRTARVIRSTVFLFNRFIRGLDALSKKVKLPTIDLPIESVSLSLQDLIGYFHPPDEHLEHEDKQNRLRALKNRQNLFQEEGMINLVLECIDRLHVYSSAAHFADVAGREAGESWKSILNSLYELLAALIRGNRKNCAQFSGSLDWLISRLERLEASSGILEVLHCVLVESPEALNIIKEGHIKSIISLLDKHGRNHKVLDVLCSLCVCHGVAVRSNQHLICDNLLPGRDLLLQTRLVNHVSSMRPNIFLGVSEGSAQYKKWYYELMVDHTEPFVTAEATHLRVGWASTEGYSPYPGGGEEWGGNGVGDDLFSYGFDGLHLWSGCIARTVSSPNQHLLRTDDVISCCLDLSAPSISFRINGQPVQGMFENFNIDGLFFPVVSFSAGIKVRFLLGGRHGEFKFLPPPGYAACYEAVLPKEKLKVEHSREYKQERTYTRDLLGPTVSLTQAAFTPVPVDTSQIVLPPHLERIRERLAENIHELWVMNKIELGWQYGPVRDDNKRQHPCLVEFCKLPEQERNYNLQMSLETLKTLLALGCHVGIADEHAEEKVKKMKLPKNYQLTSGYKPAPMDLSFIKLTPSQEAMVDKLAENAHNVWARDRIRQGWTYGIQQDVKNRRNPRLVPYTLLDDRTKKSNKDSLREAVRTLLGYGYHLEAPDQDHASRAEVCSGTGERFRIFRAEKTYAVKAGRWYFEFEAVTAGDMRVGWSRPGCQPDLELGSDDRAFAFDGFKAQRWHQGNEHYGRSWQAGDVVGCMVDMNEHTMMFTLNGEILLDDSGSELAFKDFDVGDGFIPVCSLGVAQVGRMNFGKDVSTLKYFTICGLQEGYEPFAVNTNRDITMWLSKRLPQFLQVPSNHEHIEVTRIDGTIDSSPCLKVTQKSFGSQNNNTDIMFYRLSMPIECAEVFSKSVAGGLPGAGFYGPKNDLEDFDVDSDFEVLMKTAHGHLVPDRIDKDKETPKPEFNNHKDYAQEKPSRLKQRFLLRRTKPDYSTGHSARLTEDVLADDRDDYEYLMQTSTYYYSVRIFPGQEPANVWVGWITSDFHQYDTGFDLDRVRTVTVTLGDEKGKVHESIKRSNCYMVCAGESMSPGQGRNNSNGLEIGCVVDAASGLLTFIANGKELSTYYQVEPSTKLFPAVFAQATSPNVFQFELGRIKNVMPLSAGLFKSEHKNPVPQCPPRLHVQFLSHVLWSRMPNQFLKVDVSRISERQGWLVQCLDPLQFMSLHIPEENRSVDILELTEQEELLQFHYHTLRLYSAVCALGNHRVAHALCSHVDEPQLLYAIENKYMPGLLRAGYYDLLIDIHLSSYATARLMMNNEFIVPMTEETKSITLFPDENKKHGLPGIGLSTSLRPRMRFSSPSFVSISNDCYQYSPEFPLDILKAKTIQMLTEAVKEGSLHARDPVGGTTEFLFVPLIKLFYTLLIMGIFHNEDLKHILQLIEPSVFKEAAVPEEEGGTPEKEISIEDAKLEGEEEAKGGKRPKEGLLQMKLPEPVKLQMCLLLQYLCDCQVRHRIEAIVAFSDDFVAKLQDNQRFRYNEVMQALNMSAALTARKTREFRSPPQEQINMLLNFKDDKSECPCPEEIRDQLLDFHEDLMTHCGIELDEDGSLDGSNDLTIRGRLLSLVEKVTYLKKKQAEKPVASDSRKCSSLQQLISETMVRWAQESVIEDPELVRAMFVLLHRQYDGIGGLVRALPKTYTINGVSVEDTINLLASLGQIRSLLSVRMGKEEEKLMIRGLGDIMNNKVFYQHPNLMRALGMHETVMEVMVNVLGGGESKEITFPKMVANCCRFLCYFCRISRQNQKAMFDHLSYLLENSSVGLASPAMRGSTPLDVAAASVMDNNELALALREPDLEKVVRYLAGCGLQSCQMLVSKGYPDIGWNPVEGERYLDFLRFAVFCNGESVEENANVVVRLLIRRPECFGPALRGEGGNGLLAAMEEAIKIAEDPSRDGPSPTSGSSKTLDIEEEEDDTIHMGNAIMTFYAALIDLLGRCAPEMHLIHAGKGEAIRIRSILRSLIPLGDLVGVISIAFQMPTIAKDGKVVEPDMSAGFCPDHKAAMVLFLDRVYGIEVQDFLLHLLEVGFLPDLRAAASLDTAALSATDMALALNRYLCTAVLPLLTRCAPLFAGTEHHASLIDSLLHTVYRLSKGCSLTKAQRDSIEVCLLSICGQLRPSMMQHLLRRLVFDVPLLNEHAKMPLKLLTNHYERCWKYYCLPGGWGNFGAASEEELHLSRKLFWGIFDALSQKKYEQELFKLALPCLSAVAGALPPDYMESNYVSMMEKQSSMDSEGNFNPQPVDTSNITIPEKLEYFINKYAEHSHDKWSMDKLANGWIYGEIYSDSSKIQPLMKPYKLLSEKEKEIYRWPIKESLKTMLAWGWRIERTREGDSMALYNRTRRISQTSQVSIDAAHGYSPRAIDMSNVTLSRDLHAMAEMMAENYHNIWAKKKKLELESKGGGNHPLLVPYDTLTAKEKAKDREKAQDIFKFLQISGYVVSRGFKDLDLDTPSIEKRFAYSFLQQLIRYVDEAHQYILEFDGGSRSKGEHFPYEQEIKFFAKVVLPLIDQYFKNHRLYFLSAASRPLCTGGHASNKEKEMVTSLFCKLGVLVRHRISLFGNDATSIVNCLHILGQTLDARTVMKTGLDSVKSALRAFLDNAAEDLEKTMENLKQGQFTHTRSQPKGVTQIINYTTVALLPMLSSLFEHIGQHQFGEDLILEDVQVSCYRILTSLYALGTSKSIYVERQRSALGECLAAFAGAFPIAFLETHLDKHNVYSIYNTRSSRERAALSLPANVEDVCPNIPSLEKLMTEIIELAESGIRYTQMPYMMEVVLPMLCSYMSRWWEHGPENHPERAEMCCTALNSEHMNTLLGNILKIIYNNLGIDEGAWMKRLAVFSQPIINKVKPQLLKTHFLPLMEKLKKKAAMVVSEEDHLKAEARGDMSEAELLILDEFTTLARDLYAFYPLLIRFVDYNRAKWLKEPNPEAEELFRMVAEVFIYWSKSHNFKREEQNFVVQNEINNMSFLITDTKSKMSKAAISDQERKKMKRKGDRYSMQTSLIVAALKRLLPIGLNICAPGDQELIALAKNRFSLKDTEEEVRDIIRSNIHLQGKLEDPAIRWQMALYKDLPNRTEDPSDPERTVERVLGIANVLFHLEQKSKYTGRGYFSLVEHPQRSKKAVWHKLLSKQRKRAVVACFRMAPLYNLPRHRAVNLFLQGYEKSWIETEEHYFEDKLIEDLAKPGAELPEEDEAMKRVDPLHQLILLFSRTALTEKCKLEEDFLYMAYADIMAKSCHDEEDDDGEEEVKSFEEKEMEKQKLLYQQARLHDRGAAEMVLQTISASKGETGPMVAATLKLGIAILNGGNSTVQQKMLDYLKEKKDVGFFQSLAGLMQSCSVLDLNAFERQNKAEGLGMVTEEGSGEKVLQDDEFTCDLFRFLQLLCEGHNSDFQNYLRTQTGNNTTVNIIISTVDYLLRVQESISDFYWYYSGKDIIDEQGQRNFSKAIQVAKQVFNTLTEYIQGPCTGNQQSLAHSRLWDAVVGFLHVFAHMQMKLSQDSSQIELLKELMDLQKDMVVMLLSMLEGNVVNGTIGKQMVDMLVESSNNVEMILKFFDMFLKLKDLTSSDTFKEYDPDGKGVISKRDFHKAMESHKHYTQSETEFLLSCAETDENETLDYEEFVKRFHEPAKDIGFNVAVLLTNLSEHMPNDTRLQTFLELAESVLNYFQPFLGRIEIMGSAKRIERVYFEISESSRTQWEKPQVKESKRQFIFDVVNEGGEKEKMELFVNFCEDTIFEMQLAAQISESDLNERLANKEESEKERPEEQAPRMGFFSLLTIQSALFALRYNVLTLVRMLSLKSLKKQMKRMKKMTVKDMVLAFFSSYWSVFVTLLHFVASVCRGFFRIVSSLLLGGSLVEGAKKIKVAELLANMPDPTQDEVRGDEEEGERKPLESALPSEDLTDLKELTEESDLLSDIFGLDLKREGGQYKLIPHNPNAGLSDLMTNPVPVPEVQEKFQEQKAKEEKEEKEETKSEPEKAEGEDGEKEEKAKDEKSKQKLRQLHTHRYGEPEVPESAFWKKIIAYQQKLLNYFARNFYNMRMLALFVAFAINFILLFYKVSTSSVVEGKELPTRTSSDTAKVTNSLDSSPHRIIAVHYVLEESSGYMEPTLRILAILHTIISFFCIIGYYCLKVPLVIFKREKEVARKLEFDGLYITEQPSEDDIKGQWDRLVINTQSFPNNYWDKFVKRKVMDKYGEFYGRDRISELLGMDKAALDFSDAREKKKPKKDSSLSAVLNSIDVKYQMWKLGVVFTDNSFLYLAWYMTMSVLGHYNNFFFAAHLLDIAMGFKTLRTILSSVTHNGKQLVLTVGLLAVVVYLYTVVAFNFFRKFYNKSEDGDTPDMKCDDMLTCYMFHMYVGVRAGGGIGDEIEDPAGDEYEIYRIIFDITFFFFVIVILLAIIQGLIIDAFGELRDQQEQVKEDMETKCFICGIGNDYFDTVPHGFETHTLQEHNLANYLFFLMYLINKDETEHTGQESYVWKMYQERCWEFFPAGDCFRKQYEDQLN
T1 sequence (Q9Z2I2 whole entry partner): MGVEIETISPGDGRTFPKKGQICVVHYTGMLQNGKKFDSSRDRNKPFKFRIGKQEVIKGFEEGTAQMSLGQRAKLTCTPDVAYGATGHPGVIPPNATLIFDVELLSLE

Row | SMILES | abnormal behaviors in open field test (time center versus periphery) and EPM test (time open-arm versus closed-arm) [1] | RyR2 nitrosylation (hippocampal RyR2 [2]) | RyR2 oxidation (hippocampal RyR2 [2]) | RyR2 phosphorylation (hippocampal RyR2 [2]) | calstabin2 binding to RyR2 (hippocampal RyR2 [2]) | RyR2 mean closed time (hippocampal RyR2 [3]) | RyR2 mean open time (hippocampal RyR2 [3]) | LTP (hippocampal synaptic plasticity) (MI mice [4]) | hippocampal FDG metabolism (MI mice [5]) | expression of SNAP25, VAMP8, SYT2 and CPLX3 (SNARE signaling pathway) | NOX2 binding to hippocampal RyR2 (TGF-β pathway) | TGF-β levels (TGF-β pathway) | phosphorylation of SMAD3 (TGF-β pathway) | RyR2 open probability (Po) (hippocampal RyR2 [3]; 150 nM Ca2+ cis, MI 0.17%±0.04%)
1 | Fc1ccc(Cl)cc1-c1nc(Nc2ccncc2)c2nccnc2n1 [SD-208] | prevented | significantly decreased | significantly decreased | significantly decreased | enabled rebinding of calstabin2 | increased | decreased | prevented MI-induced LTP deficits | 138±22 | restored the expression of these proteins to the control levels | significantly reduced | significantly reduced | significantly reduced | –
2 | CC(C)NCC(O)COc1cccc2ccccc12 (centres unmarked) [propranolol] | prevented | significantly reduced | – | significantly reduced | restored calstabin2 binding | increased | decreased | prevented MI-induced LTP deficits | 145±26 | restored the expression of these proteins to the control levels | significantly reduced | significantly reduced | significantly reduced | 0.018%±0.020%

Reference: patent US20250255882A1, “TREATMENT OF CARDIAC CONDITION RELATED COGNITIVE DYSFUNCTION” (The Trustees of Columbia University in the City of New York, priority 2024, published 2025)
